In one assay the target is T1, Dihydrofolate reductase (Bos taurus, UniProt P00376).
T1 sequence (P00376 whole entry): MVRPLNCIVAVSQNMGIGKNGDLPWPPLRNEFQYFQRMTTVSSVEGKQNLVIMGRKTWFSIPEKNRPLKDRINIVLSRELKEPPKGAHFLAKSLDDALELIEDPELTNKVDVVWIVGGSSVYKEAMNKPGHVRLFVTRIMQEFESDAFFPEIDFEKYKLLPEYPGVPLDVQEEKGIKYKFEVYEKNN
Kind of assay: Inhibition of bovine liver DHFR.

Another assay deals with A498. Kind of assay: Growth inhibition of human A498 cells at 10 uM after 48 hrs. It counts as functional. The settings on record: A498, 48 h, read-out: GI.
A short description of assay [1]: Growth inhibition of human HOP92 cells at 10 uM after 48 hrs. In kind it is functional. The note with it: HOP-92, 48 h, read-out: GI.
The test system of the next assay is SK-MEL-5. The assay is described as follows: Growth inhibition of human SK-MEL-5 cells at 10 uM after 48 hrs. It counts as functional. The settings on record: SK-MEL-5, 48 h, read-out: GI.
For a further assay, the system named is HOP-62. Kind of assay: Growth inhibition of human HOP62 cells at 10 uM after 48 hrs. The note with it: HOP-62, 48 h, read-out: GI. In kind it is functional.
The subject of another assay is Candida albicans. The assay is described as follows: Antimicrobial activity against Candida albicans assessed as inhibition zone at 200 ug/disk after 24 hrs by disc-diffusion method. It counts as functional. The note with it: read-out: IZ.
Assay [2] deals with Staphylococcus aureus. Kind of assay: Antimicrobial activity against Staphylococcus aureus assessed as inhibition zone at 200 ug/disk after 24 hrs by disc-diffusion method. It counts as functional. The settings on record: read-out: IZ.
In the next assay the test system is MCF7. Kind of assay: Growth inhibition of human MCF7 cells at 10 uM after 48 hrs. In kind it is functional. The settings on record: MCF7, 48 h, read-out: GI.
The nature of assay [3]: Growth inhibition of human UO31 cells at 10 uM after 48 hrs. In kind it is functional. The note with it: UO-31, 48 h, read-out: GI.
In a further assay the test system is A549. The assay is described as follows: Growth inhibition of human A549 cells at 10 uM after 48 hrs. It counts as functional. The note with it: A549, 48 h, read-out: GI.
Assay [4] relates to Bacillus subtilis. The assay is described as follows: Antimicrobial activity against Bacillus subtilis assessed as inhibition zone at 200 ug/disk after 24 hrs by disc-diffusion method. It counts as functional. The settings on record: read-out: IZ.
Assay [5] concerns Bacillus subtilis. The assay is described as follows: Antimicrobial activity against Bacillus subtilis assessed as inhibition of visible growth after 24 hrs by disc-diffusion method. It counts as functional, organism-based.
Assay [6] relates to Escherichia coli. The assay is described as follows: Antimicrobial activity against Escherichia coli assessed as inhibition of visible growth after 24 hrs by disc-diffusion method. In kind it is functional, organism-based.
The test system of the next assay is T47D. Kind of assay: Growth inhibition of human T47D cells at 10 uM after 48 hrs. It counts as functional. The settings on record: read-out: GI.
A short description of assay [7]: Growth inhibition of human PC3 cells at 10 uM after 48 hrs. The settings on record: PC-3, 48 h, read-out: GI. In kind it is functional.
Another assay deals with U-251. The assay is described as follows: Growth inhibition of human U251 cells at 10 uM after 48 hrs. In kind it is functional. The settings on record: U-251, 48 h, read-out: GI.
Assay [8] in a line: Growth inhibition of human Hs 578T cells at 10 uM after 48 hrs. In kind it is functional. The note with it: read-out: GI.
Assay [9] has as its system Escherichia coli. The assay is described as follows: Antimicrobial activity against Escherichia coli assessed as inhibition zone at 200 ug/disk after 24 hrs by disc-diffusion method. In kind it is functional. The note with it: read-out: IZ.
A short description of assay [10]: Growth inhibition of human HCT15 cells at 10 uM after 48 hrs. It counts as functional. The settings on record: HCT-15, 48 h, read-out: GI.
Assay [11] in a line: Growth inhibition of human SF295 cells at 10 uM after 48 hrs. In kind it is functional. The note with it: SF-295, 48 h, read-out: GI.
The test system of assay [12] is Staphylococcus aureus. The assay is described as follows: Antimicrobial activity against Staphylococcus aureus assessed as inhibition of visible growth after 24 hrs by disc-diffusion method. In kind it is functional, organism-based.
For the next assay, the system named is MDA-MB-435. Kind of assay: Growth inhibition of human MDA-MB-435 cells at 10 uM after 48 hrs. In kind it is functional. The settings on record: MDA-MB-435, 48 h, read-out: GI.
The nature of assay [13]: Growth inhibition of human RPMI8226 cells at 10 uM after 48 hrs. In kind it is functional. The settings on record: RPMI-8226, 48 h, read-out: GI.
Assay [14] in a line: Growth inhibition of human UACC257 cells at 10 uM after 48 hrs. It counts as functional. The settings on record: UACC-257, 48 h, read-out: GI.
Another assay deals with Pseudomonas aeruginosa. Kind of assay: Antimicrobial activity against Pseudomonas aeruginosa assessed as inhibition zone at 200 ug/disk after 24 hrs by disc-diffusion method. In kind it is functional. The settings on record: read-out: IZ.
The subject of another assay is 786-0. The assay is described as follows: Growth inhibition of human 786-0 cells at 10 uM after 48 hrs. In kind it is functional. The settings on record: 786-0, 48 h, read-out: GI.
Assay [15] can be described thus: Growth inhibition of human UACC62 cells at 10 uM after 48 hrs. In kind it is functional. The settings on record: UACC-62, 48 h, read-out: GI.
The next assay relates to MDA-MB-231. The assay is described as follows: Growth inhibition of human MDA-MB-231 cells at 10 uM after 48 hrs. It counts as functional. The note with it: MDA-MB-231, 48 h, read-out: GI.
Assay [16] in a line: Growth inhibition of human RXF393 cells at 10 uM after 48 hrs. It counts as functional. The settings on record: RXF 393, 48 h, read-out: GI.
Assay [17] can be described thus: Growth inhibition of human HCT116 cells at 10 uM after 48 hrs. It counts as functional. The note with it: HCT-116, 48 h, read-out: GI.
A short description of assay [18]: Growth inhibition of human SF539 cells at 10 uM after 48 hrs. It counts as functional. The settings on record: SF-539, 48 h, read-out: GI.
The next assay has as its system SR. Kind of assay: Growth inhibition of human SR cells at 10 uM after 48 hrs. In kind it is functional. The settings on record: read-out: GI.
A further assay deals with CAKI-1. The assay is described as follows: Growth inhibition of human CAKI-1 cells at 10 uM after 48 hrs. In kind it is functional. The settings on record: CAKI-1, 48 h, read-out: GI.
Another assay concerns HL-60(TB). Kind of assay: Growth inhibition of human HL-60(TB) cells at 10 uM after 48 hrs. In kind it is functional. The note with it: HL-60, 48 h, read-out: GI.

The values below come from ChEMBL document CHEMBL3352542, “Synthesis, biological evaluation and molecular modeling study of 2-(1,3,4-thiadiazolyl-thio and 4-methyl-thiazolyl-thio)-quinazolin-4-ones as a new class of DHFR inhibitors” (Bioorg Med Chem Lett, 2014).

SMILES strings stand for the structures. Calls of active or inactive are those of the source. The rule behind the calls is not given here.

Turning to `Nc1nnc(Sc2nc3ccc(Cl)cc3c(=O)n2-c2ccc(Cl)cc2)s1`, the IC50 against Dihydrofolate reductase was determined as 1 µM. For the same compound, the inhibition of growth at 10 µM with A498 came out at 30.6%; in assay [1], 53.7%; in the assay on SK-MEL-5 it was 10.9%; in the assay with HOP-62 it was 16.7%; in the assay with MCF7, 12.7%; in [3] it was 24.6%. Moreover, the inhibition of growth at 10 µM in the assay on A549 turned out to be 11.1%; with T47D, 29.2%; in [7], 14.1%; in the assay with U-251 it was 11%; in assay [8], 13.3%; in [10] it was 12.7%. Further, the inhibition of growth at 10 µM in assay [11] was determined as 20.6%; with MDA-MB-435, 10.8%; in assay [13] it was 12.1%; in assay [14], 12.3%; in the assay with 786-0, 15.4%. The zone of inhibition at 200 µg/disc in the assay with Candida albicans came to 8 mm; with Staphylococcus aureus [2], 18 mm; with Bacillus subtilis [4], 20 mm; in the assay on Escherichia coli [9] it was 16 mm; with Pseudomonas aeruginosa, 12 mm. The result with Bacillus subtilis [5], in the assay on Escherichia coli [6] and in the assay with Staphylococcus aureus [12] was Active.
Consider `Cc1ccc(-n2c(Sc3nnc(N)s3)nc3ccc(C)cc3c2=O)cc1`, for which the midpoint of inhibition on Dihydrofolate reductase, the IC50, lay at 8 µM. Moreover, the inhibition of growth at 10 µM came out at 14.8% in [15]; 14.2% in the assay with A498; 21.1% in [1]; 21.9% in the assay on MDA-MB-231; 23.2% in assay [3]; 11.8% in assay [7]. In addition, the inhibition of growth at 10 µM in assay [16] was 10.5%; in assay [17], 11.6%; in assay [18] it was 15.6%; in the assay on SR, 32.7%; in the assay with CAKI-1, 10.4%; in the assay with HL-60(TB), 28.2%. The zone of inhibition at 200 µg/disc with Candida albicans, in the assay with Staphylococcus aureus [2], in the assay with Bacillus subtilis [4], with Escherichia coli [9] and with Pseudomonas aeruginosa was 8 mm each time.
